The values that follow come from publication PMC2857584 (Science (New York, N.Y.), 2009).

For this assay, the target named is T1, SepSecS (Homo sapiens, UniProt Q9HD40).
T1 sequence (Q9HD40 1-501): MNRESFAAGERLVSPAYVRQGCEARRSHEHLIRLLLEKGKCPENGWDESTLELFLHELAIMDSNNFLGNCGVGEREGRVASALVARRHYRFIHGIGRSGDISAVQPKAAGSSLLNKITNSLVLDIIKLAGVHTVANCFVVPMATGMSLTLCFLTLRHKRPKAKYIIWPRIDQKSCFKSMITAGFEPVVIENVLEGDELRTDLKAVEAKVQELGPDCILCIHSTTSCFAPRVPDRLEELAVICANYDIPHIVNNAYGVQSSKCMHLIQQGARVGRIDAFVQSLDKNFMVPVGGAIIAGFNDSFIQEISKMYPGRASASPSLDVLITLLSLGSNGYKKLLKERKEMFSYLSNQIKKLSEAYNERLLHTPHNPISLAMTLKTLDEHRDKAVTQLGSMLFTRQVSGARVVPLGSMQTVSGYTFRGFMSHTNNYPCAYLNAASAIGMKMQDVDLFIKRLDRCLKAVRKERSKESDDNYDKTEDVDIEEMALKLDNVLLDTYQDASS
The assay is described as follows: X-ray crystallography, […] A. The note with it: covalent; Schiff base (internal aldimine) with Lys284. The class given is binding.

SMILES strings stand for the structures.

Take `Cc1ncc(COP(=O)(O)O)c(C=O)c1O` [PLP, pyridoxal phosphate]: the “X-ray crystallography, 2.8 A” value is “Each SepSecS monomer has a PLP cofactor covalently linked to the Nε-amino group”.
